From patent US10253236B2, “Environmental friendly well treatment fluids comprising an ester” (AMRIL AG, priority 2013, dated 2019) come the findings set out here.

A short description of series [1]: Rheological characteristics of the oil based mud (Fann SR 12/Model 35 rheometer). Format: physicochemical. Particulars: 2.5 g additive in oil based mud, measuring temp. 50° C. How it is done: (§1) An oil based well treatment fluid was prepared as follows: the indicated amounts of the following ingredients are mixed using a Silverson Mixer (model L4RT) in the following order: synthetic paraffin, filtration control agent (a polymer: preferably Adapta by Halliburton), Ca(OH)2, Amidoamin (Terradril EM 1122), Water, CaCl2*2H2O, BaSO4, ball clay.
(§2) Next, either an ester of the invention (for example azelaic ricinoleate or an ester based on a C21 dimer acid and ricinoleic acid) or a conventional viscosifier (C36 dimer acid) is added to the mixture and to obtain the final emulsion a standard Hamilton Beach mixer was used, following manufacturer's instructions.
(§3) Next, the rheological characteristics including the fluids-plastic viscosity (PV), yield point (YP) and gel strength (gels 10″/10′) after 10 seconds and 10 minutes were determined with a Fann SR 12/Model 35 rheometer (Fann). In addition to the rheological characteristics, the electrical stability was tested using a Model 23D Electrical Stability Tester, following manufacturer's instructions, in accordance with API recommended practice 13B-2, December 1991.
(§4) The well treatment fluid was also tested in a Roller Oven for the indicated times at the indicated temperatures (after hot rolling=AHR and before hot rolling=BHR as indicated in the Table). As roller oven, a Baroid Laboratory Roller Oven was used, following manufacturer's instructions.

The nature of series [2]: Electrical stability of the oil based mud (Model 23D Electrical Stability Tester, API 13B-2). Format: physicochemical. Particulars: 2.5 g additive in oil based mud, measuring temp. 50° C. As to the method: as §1, §2, §3, §4
In series [3] the test system is seawater bacteria. The series is described as follows: Inhibition to seawater bacteria (Marine BODIS test). Particulars: natural seawater.
Description: This method uses natural seawater (salinity 34%-37%) with added mineral nutrients (8.5 g/l KH2PO4, 21.7 g/l K2HPO4, 29.92 g/l Na2HPO4.2H2O, 0.5 g/l NH4Cl, 31.84 CaCl2, 22.5 g/l MgSO4.7H2O, 0.25 g/l FeCl3.6H2O, 0.4 g/l EDTA) and no inoculum was added in addition to the microorganisms already present in the seawater. The test vessels were closed glass bottles with a known volume of aqueous test mixture (66.6%) and air (33.3%). They were shaken continuously to assure steady state oxygen partitioning between the aqueous and gaseous phase. The degradation was followed by weekly measurements of the biochemical oxygen demand (BOD) in the aqueous phase for a 28-day period. The test vessels were re-aerated and resealed after measurement. The total oxygen uptake in the test flasks was calculated from the measured oxygen concentration divided by the saturation value at normal conditions and multiplied with the total oxygen content originally present in the aqueous and gaseous phases.
Three replicates were used for each test condition: test substance, controls, and insoluble reference substance. The total oxygen capacity of each test vessel was 26.64 mg oxygen. […]
The mark [4] stands for this setting: AHR 16 h (System 4: 15 h) at 150 °F.
Where [5] appears, read: AHR (after hot rolling) 16 h (System 4: 15 h) at 150 °F.

As for C36 dimer acid, in series [1] (setting [4]), the 3 rpm stood at 10 skt, the 6 rpm turned out to be 12 skt, the 100 rpm amounted to 23 skt and the 200 rpm came out at 29 skt. In series [1] (setting [4]), the 300 rpm is given as 35 skt, the 600 rpm is reported as 49 skt, the “Gels 10′ (gel strength after 10 minutes)” value came out at 15 lb/100 ft^2 and the “Gels 10″ (gel strength after 10 seconds)” value stood at 11 lb/100 ft^2. Besides, in series [1] (setting [4]), the “PV (plastic viscosity)” value came to 14 cP and the “YP (yield point)” value came out at 21 lb/100 ft^2. Further, in series [1] (BHR), the 3 rpm is given as 15 skt, the 6 rpm was determined as 15 skt, the 100 rpm is given as 25 skt and the 200 rpm worked out at 32 skt. For the same compound, in series [1] (BHR), the 300 rpm amounted to 39 skt, the 600 rpm is 52 skt, the “Gels 10′ (gel strength after 10 minutes)” value was determined as 19 lb/100 ft^2 and the “Gels 10″ (gel strength after 10 seconds)” value came to 16 lb/100 ft^2. Further, in series [1] (BHR), the “PV (plastic viscosity)” value was 13 cP and the “YP (yield point)” value turned out to be 26 lb/100 ft^2. For the same compound, in series [2] (setting [5]), the Electrical stab. was 830 V. Also, the Electrical stab. in series [2] (BHR (before hot rolling)) is 795 V. For the same compound, in series [3], the “inhibition to seawater bacteria” value is recorded as −1%.
Consider `CCCCCCC(CC=CCCCCCCCC(=O)O)OC(=O)CCCCCCCC(=O)O` (stereo not shown) [Azelaic ricinoleate, azelaic ricinoleate], for which, in series [1] (setting [4]), the 3 rpm was determined as 24 skt, the 6 rpm was 24 skt, the 100 rpm is recorded as 30 skt and the 200 rpm was 37 skt. Moreover, in series [1] (setting [4]), the 300 rpm was 44 skt, the 600 rpm worked out at 59 skt, the “Gels 10′ (gel strength after 10 minutes)” value stood at 25 lb/100 ft^2 and the “Gels 10″ (gel strength after 10 seconds)” value is reported as 22 lb/100 ft^2. Besides, in series [1] (setting [4]), the “PV (plastic viscosity)” value is 15 cP and the “YP (yield point)” value is recorded as 29 lb/100 ft^2. Further, in series [1] (BHR), the 3 rpm came to 25 skt, the 6 rpm came to 25 skt, the 100 rpm stood at 31 skt and the 200 rpm is 38 skt. Further, in series [1] (BHR), the 300 rpm was 44 skt, the 600 rpm stood at 59 skt, the “Gels 10′ (gel strength after 10 minutes)” value was 25 lb/100 ft^2 and the “Gels 10″ (gel strength after 10 seconds)” value is 20 lb/100 ft^2. For the same compound, in series [1] (BHR), the “PV (plastic viscosity)” value was found to be 15 cP and the “YP (yield point)” value is reported as 29 lb/100 ft^2. Further, in series [2] (setting [5]), the Electrical stab. turned out to be 802 V. The Electrical stab. in series [2] (BHR (before hot rolling)) was found to be 760 V. Further, the “inhibition to seawater bacteria” value in series [3] is reported as −14%.
